Measurements taken from patent publication US9926297B2, “Bicyclic AZA compounds as muscarinic M1 receptor and/or M4 receptor agonists” (Heptares Therapeutics Limited, priority 2014, dated 2018).

Experiments:
[1] = biological target: T1, human muscarinic M2 receptor (Homo sapiens, UniProt P08172); assay: Alphascreen Surefire phospho-ERK1/2 functional assay, M2; conditions: for Emax: CHO, read-out: % Emax cf. ACh, M2, CHO cells stably expressing human M2; for Emax / % Emax cf. ACh, M2: relative to ACh
T1 sequence (P08172 1-466): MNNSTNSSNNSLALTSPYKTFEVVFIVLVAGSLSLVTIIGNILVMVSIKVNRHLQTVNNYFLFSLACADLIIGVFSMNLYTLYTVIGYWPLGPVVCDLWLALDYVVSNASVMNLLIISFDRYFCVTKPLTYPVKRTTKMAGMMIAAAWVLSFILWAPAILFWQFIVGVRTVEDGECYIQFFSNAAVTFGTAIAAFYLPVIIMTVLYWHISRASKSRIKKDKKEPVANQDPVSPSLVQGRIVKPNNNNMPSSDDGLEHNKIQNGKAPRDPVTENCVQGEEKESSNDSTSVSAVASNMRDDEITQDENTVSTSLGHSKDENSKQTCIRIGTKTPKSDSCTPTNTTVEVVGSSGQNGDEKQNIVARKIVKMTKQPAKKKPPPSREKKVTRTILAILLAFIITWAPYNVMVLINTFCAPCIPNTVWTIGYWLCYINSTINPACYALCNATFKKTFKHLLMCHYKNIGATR

[2] = biological target: T2, human muscarinic M1 receptor (Homo sapiens, UniProt P11229); assay: Alphascreen Surefire phospho-ERK1/2 functional assay, M1; type: cell-based; conditions: for EC50: read-out: pEC50 M1 (converted); for Emax: CHO, read-out: % Emax cf. ACh, M1, CHO cells stably expressing human M1; for Emax / % Emax cf. ACh, M1: relative to ACh
T2 sequence (P11229 1-460): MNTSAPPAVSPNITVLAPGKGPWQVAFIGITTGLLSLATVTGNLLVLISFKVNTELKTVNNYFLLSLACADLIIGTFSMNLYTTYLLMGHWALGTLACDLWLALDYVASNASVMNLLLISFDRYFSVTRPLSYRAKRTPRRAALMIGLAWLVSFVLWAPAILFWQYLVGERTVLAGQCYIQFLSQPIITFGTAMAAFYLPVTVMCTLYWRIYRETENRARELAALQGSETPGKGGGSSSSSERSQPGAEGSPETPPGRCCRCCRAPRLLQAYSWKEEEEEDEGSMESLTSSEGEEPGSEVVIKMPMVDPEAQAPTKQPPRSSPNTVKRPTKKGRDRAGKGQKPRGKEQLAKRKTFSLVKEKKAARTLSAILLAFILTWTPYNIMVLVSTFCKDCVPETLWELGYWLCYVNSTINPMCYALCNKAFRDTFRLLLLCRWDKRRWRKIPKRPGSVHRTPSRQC

[3] = biological target: T3, human muscarinic M4 receptor (Homo sapiens, UniProt P08173); assay: Alphascreen Surefire phospho-ERK1/2 functional assay, M4; type: cell-based; conditions: for EC50 / % Emax cf. ACh, M4: CHO cells stably expressing human M4; for EC50: phospho-ERK1/2, * = variable results, read-out: pEC50 M4 (converted); for Emax: CHO, read-out: % Emax cf. ACh, M4, CHO cells stably expressing human M4; for Emax / % Emax cf. ACh, M4: relative to ACh
T3 construct: expressed in transfected cells
T3 sequence (P08173 1-479): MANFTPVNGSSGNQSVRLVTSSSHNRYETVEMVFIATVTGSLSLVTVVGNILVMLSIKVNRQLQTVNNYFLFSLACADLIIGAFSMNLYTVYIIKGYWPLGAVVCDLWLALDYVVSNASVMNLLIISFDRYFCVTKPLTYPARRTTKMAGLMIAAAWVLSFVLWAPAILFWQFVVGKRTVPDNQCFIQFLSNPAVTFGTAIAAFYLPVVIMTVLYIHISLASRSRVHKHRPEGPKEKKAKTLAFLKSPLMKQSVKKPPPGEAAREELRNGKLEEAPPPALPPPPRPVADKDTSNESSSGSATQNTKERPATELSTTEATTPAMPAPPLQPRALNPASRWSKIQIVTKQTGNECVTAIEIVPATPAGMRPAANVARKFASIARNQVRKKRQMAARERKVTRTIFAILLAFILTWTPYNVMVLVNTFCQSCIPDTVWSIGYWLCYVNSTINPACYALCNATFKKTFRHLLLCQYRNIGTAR

[4] = biological target: human muscarinic M3 receptor (Homo sapiens, UniProt P20309); assay: Alphascreen Surefire phospho-ERK1/2 functional assay, M3; conditions: for Emax: CHO, read-out: % Emax cf. ACh, M3, CHO cells stably expressing human M3; for Emax / % Emax cf. ACh, M3: relative to ACh; for EC50: pEC50 M3, CHO cells stably expressing human M3
Method: CHO cells stably expressing the human muscarinic M1, M2, M3 or M4 receptor were plated (25K/well) onto 96-well tissue culture plates in MEM-alpha+10% dialysed FBS. Once adhered, cells were serum-starved overnight. Agonist stimulation was performed by the addition of 5 μL agonist to the cells for 5 min (37° C.). Media was removed and 50 μL of lysis buffer added. After 15 min, a 4 μL sample was transferred to 384-well plate and 7 μL of detection mixture added. Plates were incubated for 2 h with gentle agitation in the dark and then read on a PHERAstar plate reader.
pEC50 and Emax figures were calculated from the resulting data for each receptor subtype.

[5] = CHO cells stably expressing human M1, phospho-ERK1/2, * = variable results
[6] = phospho-ERK1/2, * = variable results
[7] = CHO cells stably expressing human M2
[8] = CHO cells stably expressing human M1
[9] = CHO cells stably expressing human M3

Sequence of human muscarinic M3 receptor (P20309 whole entry): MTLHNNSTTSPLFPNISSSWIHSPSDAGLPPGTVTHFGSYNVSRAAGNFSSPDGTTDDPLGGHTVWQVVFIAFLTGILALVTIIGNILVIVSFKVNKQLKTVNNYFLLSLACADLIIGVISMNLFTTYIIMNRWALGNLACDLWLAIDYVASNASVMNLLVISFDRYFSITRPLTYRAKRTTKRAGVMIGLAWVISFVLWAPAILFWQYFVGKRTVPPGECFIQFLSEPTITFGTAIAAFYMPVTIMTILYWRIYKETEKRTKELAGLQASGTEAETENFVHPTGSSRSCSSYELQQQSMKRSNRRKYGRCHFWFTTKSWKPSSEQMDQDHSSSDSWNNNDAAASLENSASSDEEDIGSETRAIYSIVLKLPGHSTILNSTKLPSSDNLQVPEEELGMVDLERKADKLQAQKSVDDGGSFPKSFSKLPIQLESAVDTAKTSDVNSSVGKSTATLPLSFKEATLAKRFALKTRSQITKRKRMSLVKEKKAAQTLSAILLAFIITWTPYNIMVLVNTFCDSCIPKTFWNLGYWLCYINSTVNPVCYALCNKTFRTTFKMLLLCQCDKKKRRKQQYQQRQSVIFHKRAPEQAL

| Compound | EC50 [1] [µM] | Emax [1] [%] | EC50 [2, 5] [µM] | Emax [2] [%] | EC50 [3] [µM] | Emax [3] [%] | Emax [4] [%] | EC50 [4, 6] [µM] | % Emax cf. ACh, M2 [1, 7] [%] | % Emax cf. ACh, M1 [2, 8] [%] | % Emax cf. ACh, M4 [3] [%] | % Emax cf. ACh, M3 [4, 9] [%] | pEC50 M2 ([1]; CHO cells stably expressing human M2, phospho-ERK1/2, * = variable results) | pEC50 M3 ([4]; CHO cells stably expressing human M3, phospho-ERK1/2, * = variable results) | pEC50 M1 [2, 5] |
| --- | --- | --- | --- | --- | --- | --- | --- | --- | --- | --- | --- | --- | --- | --- | --- |
| CCOC(=O)N1CCC2(CC(N3CCC([C@@H]4CCCN4C(=O)CO)CC3)C2)C1 (single isomer, unassigned) [2-52 Isomer 2] | > 20 | 4 | 0.631 | 49 | 0.02 | 85 | 4 | > 20 |  |  |  |  |  |  |  |
| CCOC(=O)N1CCC2(CC(N3CCC([C@@H]4CCCN4C(=O)CC(F)(F)F)CC3)C2)C1 (single isomer, unassigned) [2-53 Isomer 2] | > 20 | 10 | 0.0794 | 109 | 0.00794 | 126 | 21 | 6.31 |  |  |  |  |  |  |  |
| CCOC(=O)N1CCC2(CC(N3CCC([C@@H]4CCCN4C(=O)NCc4ccccn4)CC3)C2)C1 (single isomer, unassigned) [2-54 Isomer 1] | > 20 |  | > 20 |  | 0.0158 |  |  | > 20 | 50 | 1 | 45 | 0 |  |  |  |
| CCOC(=O)N1CCC2(CC(N3CCC([C@@H]4CCCN4C(=O)NCc4ccccn4)CC3)C2)C1 (single isomer, unassigned) [2-54 Isomer 2] |  |  | 0.0501 |  | 0.00126 |  |  |  | 8 | 86 | 134 | 23 | < 4.7 | < 4.7 |  |
| CCOC(=O)N1CCC2(CC(N3CCC([C@@H]4CCCN4C(=O)N(C)CC(F)(F)F)CC3)C2)C1 (single isomer, unassigned) [2-55 Isomer 2] | > 20 | 22 |  |  | 0.0251 |  | 12 | > 20 |  | 7 | 52 |  |  |  | < 4.7 |
| CCOC(=O)N1CCC2(CC(N3CCC([C@@H]4CCCN4C(=O)NC4COC4)CC3)C2)C1 (single isomer, unassigned) [2-56 Isomer 2] | > 20 | 8 | 0.631 | 96 | 0.00501 | 134 | 0 | > 20 |  |  |  |  |  |  |  |
| CCOC(=O)N1CCC2(CC(N3CCC([C@@H]4CCCN4C(=O)N(C)C4COC4)CC3)C2)C1 (single isomer, unassigned) [2-57 Isomer 2] | > 20 | 25 | > 20 | 16 | 0.0316 | 117 | 4 | > 20 |  |  |  |  |  |  |  |
| CCOC(=O)N1CCC2(CC(N3CCC([C@@H]4CCCN4C(=S)CC)CC3)C2)C1 (single isomer, unassigned) [2-58 Isomer 2] | > 20 | 45 | 1 | 66 | 0.0316 | 156 | 9 | > 20 |  |  |  |  |  |  |  |
| CCOC(=O)N1CCC2(CC(N3CCC([C@@H]4C[C@H](F)CN4C(=O)CC)CC3)C2)C1 (single isomer, unassigned) [2-59 Isomer 2] | > 20 | 11 | 3.16 | 28 | 0.251 | 67 | 7 | > 20 |  |  |  |  |  |  |  |
| CCOC(=O)N1CCC2(CC(N3CCC([C@@H]4CCCN4C(=O)CCc4ccccn4)CC3)C2)C1 (single isomer, unassigned) [2-62 Isomer 2] | > 20 | 6 | > 20 | 20 | 0.0158 | 65 | 8 | > 20 |  |  |  |  |  |  |  |
| CCOC(=O)N1CCC2(CC(N3CCC([C@@H]4CCCN4C(=O)N(C)Cc4ccccn4)CC3)C2)C1 (single isomer, unassigned) [2-63 Isomer 2] | > 20 | 0 | 0.251 | 34 | 0.0631 | 60 | 4 | > 20 |  |  |  |  |  |  |  |
| CCOC(=O)N1CCC2(CC(N3CCC([C@@H]4CCCN4C(=O)OCc4ccccn4)CC3)C2)C1 (single isomer, unassigned) [2-64 Isomer 2] | > 20 | 6 | > 20 | 12 | 0.00316 | 41 | 8 | > 20 |  |  |  |  |  |  |  |
| CCOC(=O)N1CCC2(CC(N3CCC([C@@H]4CCCN4C(=O)CCNC(=O)OCc4ccccc4)CC3)C2)C1 (single isomer, unassigned) [2-65 Isomer 2] | > 20 | 1 | 0.158 | 60 | 0.00794 | 107 | 1 | > 20 |  |  |  |  |  |  |  |
| CCOC(=O)N1CCC2(CC(N3CCC([C@@H]4CCCN4C(=O)CCN)CC3)C2)C1 (single isomer, unassigned) [2-66 Isomer 2] | > 20 | 18 | 0.0398 | 96 | 0.00126 | 115 | 8 | > 20 |  |  |  |  |  |  |  |
| CCOC(=O)N1CCC2(CC(N3CCC([C@@H]4CCCN4C(=O)OCCNC)CC3)C2)C1 (single isomer, unassigned) [2-67 Isomer 2] | > 20 | 67 | > 20 | 19 | 0.02 | 79 | 1 | > 20 |  |  |  |  |  |  |  |
| CCOC(=O)N1CCC2(CC(N3CCC([C@@H]4CCCN4CCF)CC3)C2)C1 (single isomer, unassigned) [2-68 Isomer 2] | > 20 | 4 | 1 | 32 | 0.0631 | 73 | 6 | > 20 |  |  |  |  |  |  |  |
| CCOC(=O)N1CCC2(CC(N3CCC([C@@H]4CCCN4CC(F)(F)F)CC3)C2)C1 (single isomer, unassigned) [2-69 Isomer 2] | > 20 | 3 | 0.398 | 87 | 0.0126 | 110 | 2 | > 20 |  |  |  |  |  |  |  |
| CCOC(=O)N1CCC2(CC(N3CCC([C@@H]4CCCN4CCC(F)(F)F)CC3)C2)C1 (single isomer, unassigned) [2-70 Isomer 2] | > 20 | 1 | 1.58 |  | 0.0316 |  | 3 | > 20 |  | 93 | 111 |  |  |  |  |
| CCOC(=O)N1CCC2(CC(N3CCC([C@@H]4CCCN4CC(=O)OC)CC3)C2)C1 (single isomer, unassigned) [2-72 Isomer 2] | > 20 | 13 | 0.794 | 30 | 0.0794 | 52 | 10 | > 20 |  |  |  |  |  |  |  |
